The results in this text go back to patent US6689806B1, “Indolinone compounds as kinase inhibitors” (Sugen, Inc., priority 1999, dated 2004).

Molecules are shown by their SMILES.

Assay [1] deals with T1, PDGFR (Homo sapiens, UniProt P09619). Put plainly: Biochemical PDGFR assay (ELISA). Further details: expressed in transfected cells; host or cells: NIH 3T3. To be noted: Table 7, in vitro kinase activity, read-out: PDGFr biochem IC50. The method in brief:
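PDGFR-β from NIH 3T3 cell lysate captured on 28D4C10-coated plates; compound preincubated 30 min, then 20 μM ATP for 30 min at room temperature and stopped with EDTA. Phosphotyrosine detected by anti-phosphotyrosine ELISA with peroxidase secondary and ABTS, read at 410 nm.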

For assay [2], the target named is T1, PDGFR. Put plainly: PDGF-induced BrdU incorporation assay. The following applies: Table 7; 3T3 cells expressing human PDGF-R, PDGF 3.8 nM; read-out: BrdU DNA syn. PDGFr IC50. The arrangement: expressed in transfected cells; host or cells: 3T3. It is filed as cell-based. As to the method:
The cellular/biologic assays described herein measure the amount of DNA made in response to activation of a test kinase, which is a general measure of a proliferative response. The general procedure for this assay is as follows: a compound is introduced to cells expressing the test kinase, either naturally or recombinantly, for some period of time after which, if the test kinase is a receptor, a ligand known to activate the receptor is added. After incubation at least overnight, a DNA labeling reagent such as Bromodeoxy-uridine (BrdU) or 3H-thymidine is added. The amount of labeled DNA is detected with either an anti-BrdU antibody or by measuring radioactivity and is compared to control cells not contacted with a test compound.
PDGF-Induced BrdU Incorporation Assay
(8) 3T3 cell line genetically engineered to express human PDGF-R.
(1) Cells are seeded at 8000 cells/well in DMEM, 10% CS, 2 mM Gln in a 96 well plate. Cells are incubated overnight at 37° C. in 5% CO2.
(2) After 24 hours, the cells are washed with PBS, and then are serum starved in serum free medium (0% CS DMEM with 0.1% BSA) for 24 hours.
(3) On day 3, ligand (PDGF, 3.8 nM, prepared in DMEM with 0.1% BSA) and test compounds are added to the cells simultaneously. The negative control wells receive serum free DMEM with 0.1% BSA only; the positive control cells receive the ligand (PDGF) but no test compound. Test compounds are prepared in serum free DMEM with ligand in a 96 well plate, and serially diluted for 7 test concentrations.
(4) After 20 hours of ligand activation, diluted BrdU labeling reagent (1: 100 in DMEM, 0.1% BSA) is added and the cells are incubated with BrdU (final concentration=10 μM) for 1.5 hours.
(10) The absorbance of the samples are measured at 410 nm (in “dual wavelength” mode with a filter reading at 490 nm, as a reference wavelength) on a Dynatech ELISA plate reader.

The target of the next assay is EGFR (Homo sapiens, UniProt P00533). Put plainly: Biochemical EGFR assay (ELISA). Further details: A431 cell lysate; endogenous in cells; host or cells: A431. The following applies: Table 7, in vitro kinase activity, read-out: EGFr biochem IC50. In short, it runs like this:
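EGFR is captured from cell lysate onto SUMO1-coated plates and incubated with compound diluted in TBS. The kinase reaction is stopped after 5 min with EDTA. Substrate phosphotyrosine is detected with anti-phosphotyrosine and peroxidase-linked secondary antibody, then ABTS/H2O2 read at 410 nm (reference 630 nm).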
Background: In an ELISA, binding on a coated surface is turned into a signal by an enzyme label.

Another assay deals with T2, Her2 (Homo sapiens, UniProt P04626).
T2 construct: fused on or other part: P00533 (Epidermal growth factor receptor)
Put plainly: EGF-induced Her2-driven BrdU incorporation. To be noted: Table 7; 3T3 cells with EGF-R/Her2 chimeric receptor, EGF 2 nM; read-out: BrdU DNA syn. HER2 IC50. It counts as cell-based. In short, it runs like this: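 3T3 cells expressing an EGF-R extracellular/Her2 intracellular chimera were serum-starved 24 h, then given compound (7 concentrations) together with 2 nM EGF. After 20 h, BrdU (final […]) was added for 1.5 h. Incorporation was detected with anti-BrdU antibody, read at 410 nm against 490 nm reference.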
In general terms: Incorporation of labelled thymidine or its analogues reports DNA synthesis.

T1 sequence (P09619 33-1106): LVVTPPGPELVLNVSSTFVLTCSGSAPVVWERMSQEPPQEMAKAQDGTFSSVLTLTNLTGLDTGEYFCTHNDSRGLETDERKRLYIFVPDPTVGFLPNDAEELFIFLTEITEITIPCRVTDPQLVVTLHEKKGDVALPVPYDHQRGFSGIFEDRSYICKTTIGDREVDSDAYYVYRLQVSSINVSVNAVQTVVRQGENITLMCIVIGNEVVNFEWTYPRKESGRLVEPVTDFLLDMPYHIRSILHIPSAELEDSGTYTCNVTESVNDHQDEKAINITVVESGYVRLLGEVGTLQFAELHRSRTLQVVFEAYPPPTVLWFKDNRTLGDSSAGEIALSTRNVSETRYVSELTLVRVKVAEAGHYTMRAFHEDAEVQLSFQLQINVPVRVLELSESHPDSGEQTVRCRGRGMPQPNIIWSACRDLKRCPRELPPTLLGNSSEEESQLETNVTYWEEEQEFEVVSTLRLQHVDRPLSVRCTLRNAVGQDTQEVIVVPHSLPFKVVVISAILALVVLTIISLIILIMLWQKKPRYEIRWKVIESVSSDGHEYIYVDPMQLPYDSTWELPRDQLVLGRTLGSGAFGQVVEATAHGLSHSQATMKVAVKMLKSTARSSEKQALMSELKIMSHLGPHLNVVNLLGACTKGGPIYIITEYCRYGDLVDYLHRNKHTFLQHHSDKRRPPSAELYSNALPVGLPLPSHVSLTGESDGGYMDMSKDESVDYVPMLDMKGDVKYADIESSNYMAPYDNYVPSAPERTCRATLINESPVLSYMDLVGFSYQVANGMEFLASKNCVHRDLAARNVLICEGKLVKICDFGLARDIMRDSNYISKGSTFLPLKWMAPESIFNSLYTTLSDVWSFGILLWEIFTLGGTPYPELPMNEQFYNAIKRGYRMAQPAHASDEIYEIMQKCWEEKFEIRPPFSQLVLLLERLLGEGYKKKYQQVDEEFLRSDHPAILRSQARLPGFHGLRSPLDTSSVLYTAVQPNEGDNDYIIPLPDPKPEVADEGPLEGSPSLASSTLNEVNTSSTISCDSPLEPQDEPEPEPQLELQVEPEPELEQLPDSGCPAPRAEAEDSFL
Sequence of EGFR (P00533 25-1210): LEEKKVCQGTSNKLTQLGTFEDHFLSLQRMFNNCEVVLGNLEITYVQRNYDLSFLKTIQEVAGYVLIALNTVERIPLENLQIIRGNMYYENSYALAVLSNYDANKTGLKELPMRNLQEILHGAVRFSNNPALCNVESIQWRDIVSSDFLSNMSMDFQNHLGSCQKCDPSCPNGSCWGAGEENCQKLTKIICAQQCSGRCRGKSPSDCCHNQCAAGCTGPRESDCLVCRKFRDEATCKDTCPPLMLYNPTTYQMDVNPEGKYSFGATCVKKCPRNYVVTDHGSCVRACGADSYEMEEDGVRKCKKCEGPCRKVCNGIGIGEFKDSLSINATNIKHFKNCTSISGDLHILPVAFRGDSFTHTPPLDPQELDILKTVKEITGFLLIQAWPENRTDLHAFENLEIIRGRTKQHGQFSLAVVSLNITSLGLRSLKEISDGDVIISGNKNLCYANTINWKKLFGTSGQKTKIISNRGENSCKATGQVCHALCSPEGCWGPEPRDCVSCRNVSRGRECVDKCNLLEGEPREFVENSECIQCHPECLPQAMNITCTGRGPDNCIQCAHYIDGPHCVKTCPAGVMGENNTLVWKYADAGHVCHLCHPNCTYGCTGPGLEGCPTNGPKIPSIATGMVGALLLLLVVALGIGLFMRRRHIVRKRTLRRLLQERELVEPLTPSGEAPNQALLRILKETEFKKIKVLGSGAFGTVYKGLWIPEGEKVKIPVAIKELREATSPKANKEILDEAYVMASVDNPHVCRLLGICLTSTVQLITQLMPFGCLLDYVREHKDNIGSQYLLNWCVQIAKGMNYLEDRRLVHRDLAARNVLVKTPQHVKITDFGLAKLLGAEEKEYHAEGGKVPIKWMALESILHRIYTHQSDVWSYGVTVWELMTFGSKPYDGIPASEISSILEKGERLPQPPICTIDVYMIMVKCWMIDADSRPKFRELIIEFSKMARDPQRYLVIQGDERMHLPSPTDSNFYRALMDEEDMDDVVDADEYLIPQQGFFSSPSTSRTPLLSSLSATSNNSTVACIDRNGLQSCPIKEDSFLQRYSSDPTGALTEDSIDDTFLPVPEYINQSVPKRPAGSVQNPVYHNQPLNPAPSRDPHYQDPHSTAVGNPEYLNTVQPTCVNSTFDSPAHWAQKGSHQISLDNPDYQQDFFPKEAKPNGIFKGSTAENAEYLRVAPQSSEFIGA
T2 sequence (P04626 676-1255 limits assumed): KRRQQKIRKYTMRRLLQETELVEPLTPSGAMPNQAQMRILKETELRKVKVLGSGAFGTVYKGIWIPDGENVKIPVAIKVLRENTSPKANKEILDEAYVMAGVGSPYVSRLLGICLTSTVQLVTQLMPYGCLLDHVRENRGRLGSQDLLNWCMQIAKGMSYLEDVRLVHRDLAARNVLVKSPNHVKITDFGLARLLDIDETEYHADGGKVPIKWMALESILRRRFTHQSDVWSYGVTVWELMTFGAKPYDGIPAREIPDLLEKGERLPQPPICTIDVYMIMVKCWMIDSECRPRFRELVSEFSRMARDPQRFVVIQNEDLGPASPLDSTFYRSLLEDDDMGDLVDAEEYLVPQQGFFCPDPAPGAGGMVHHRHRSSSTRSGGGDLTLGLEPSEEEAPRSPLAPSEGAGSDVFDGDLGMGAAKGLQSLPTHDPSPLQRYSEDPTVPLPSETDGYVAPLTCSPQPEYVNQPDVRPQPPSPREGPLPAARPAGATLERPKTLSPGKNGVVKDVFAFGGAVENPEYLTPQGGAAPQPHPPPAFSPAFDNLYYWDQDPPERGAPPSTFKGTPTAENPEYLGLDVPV

Consider `CC(C)c1ccccc1OCCc1cccc2c1CC(=O)N2` [IN-002, 4-[2-(2-Isopropyl-phenoxy)-ethyl]-1,3-dihydro-indol-2-one], for which the IC50 at PDGFR [1] is over 100 µM; at PDGFR [2], 37.1 µM; on EGFR, over 100 µM; on Her2, 30 µM.

`O=C1Cc2c(CCOc3cccc(-c4ccccc4)c3)cccc2N1` [IN-003, 4-[2-(Biphenyl-3-yloxy)-ethyl]-1,3-dihydro-indol-2-one]: the IC50 is 20.2 µM on PDGFR [1], 22 µM on PDGFR [2], over 100 µM on EGFR and 12.1 µM on Her2.

Turning to `O=C1Nc2cccc(CCO)c2/C1=C\c1ccc(Br)cc1` [IN-004, 3-(4-Bromo-benzylidene)-4-(2-hydroxy-ethyl)-1,3-dihydro-indol-2-one], the IC50 on PDGFR [1] is over 100 µM; on PDGFR [2] it was 3.3 µM; on EGFR it was over 100 µM; on Her2, 3.6 µM.

Regarding `O=C1Nc2cccc(CCO)c2/C1=C/c1ccccn1` [IN-005, 4-(2-Hydroxy-ethyl)-3-pyridin-2-ylmethylene-1,3-dihydro-indol-2-one], the IC50 on PDGFR [1] was over 100 µM; at PDGFR [2] it was 1.7 µM; at EGFR, over 100 µM; at Her2, 1.6 µM.

As to `Cc1cccc(/C=C2\C(=O)Nc3cccc(CCO)c32)n1` [IN-006], the IC50 at PDGFR [1] is over 100 µM; on PDGFR [2], 4.6 µM; on EGFR, over 100 µM; on Her2 it was 6.6 µM.

As for `COc1ccc(/C=C2\C(=O)Nc3cccc(CCO)c32)cc1-c1cccs1` [IN-008, 4-(2-Hydroxy-ethyl)-3-(4-methoxy-3-thiophen-2-yl-benzylidene)-1,3-dihydro-indol-2-one], the IC50 is over 100 µM at PDGFR [1], 5.5 µM at PDGFR [2], over 100 µM at EGFR and 2.3 µM on Her2.

In the case of `Cc1[nH]c(/C=C2\C(=O)Nc3cccc(CCOc4cccc(C(C)C)c4)c32)c(C)c1CCCN(C)C` [IN-023], the IC50 on PDGFR [1] is 49.1 µM; on PDGFR [2], 23.6 µM; on EGFR, over 100 µM; at Her2, 33.8 µM.

In the case of `Cc1[nH]c(/C=C2\C(=O)Nc3cccc(CCOc4ccc(C(C)C)cc4)c32)c(C)c1CCC(=O)O` [IN-024, 3-(5-{4-[2-(4-Isopropyl-phenoxy)-ethyl]-2-oxo-1,2-dihydro-indol-3-ylidenemethyl}-2,4-dimethyl-1H-pyrro-3-yl)-propionic acid], the IC50 on PDGFR [1] was 97.5 µM; on PDGFR [2], 49.6 µM; on EGFR, over 100 µM; on Her2, over 50 µM.

One may read the IC50 as the concentration needed to halve the response being measured.
